Test results: patent US20240174684A1, “INHIBITORS OF cGAS ACTIVITY AS THERAPEUTIC AGENTS” (BELLBROOK LABS, LLC, priority 2021, published 2024)
Entries after “also recorded” stand apart in the source; their conditions may differ.

Key:
[1] = Metabolic stability in human hepatocytes; assay type: in vitro ADME; conditions: read-out: Human MS Stability t1/2
Method: ADME studies: Compound A and the compounds of the disclosure were tested for aqueous solubility (KSOL), metabolic stability (human and mouse […]) and permeability (Caco-2 and/or MDR1-MDCK cells) to provide an initial indication of oral bioavailability.
The favorable physicochemical properties are reflected in promising results in in vitro ADME tests. […] Metabolic stability, which was routinely measured with mouse and human hepatocytes, is outstanding, with t, greater than 2 hours for all of the compounds of the disclosure in which it has been measured. Cell permeability was measured using MDCK cells expressing human MDR1 (P-glycoprotein) to assess passive permeability as well as active transport out of the cell. […] Numerous compounds in Table 1 meet these permeability criteria, which is consistent with their design for TPSA <140 Å^2 and increased lipophilicity.
The MDCK-MDR1 permeability A ->B is shown in Table 2 below, where A represents 5-10 cm/s×10^−6; B represents 1-5 cm/s×10^−6; and C represents <1 cm/ss×10^−6. The metabolic stability half time, in both mouse and human hepatocytes, is also shown in Table 2 below, where A′ represents 100-200 minutes; B′ represents 200-300 minutes; and C′ represents >300 minutes.

mouse cGAS = mouse cGAS (Mus musculus, UniProt Q8C6L5); experiment: Transcreener cGAS enzymatic assay with mouse cGAS; assay type: biochemical; conditions: standard conditions, read-out: IC50 with mcGAS
Method: Structural, biochemical and biophysical analysis and selectivity profiling: Potency and MOA studies, including Mn^2+ sensitivity, were performed using the Transcreener cGAS enzymatic assay, which is manufactured at BellBrook Labs (Fitchburg, Wisconsin, USA). This homogenous cGAS enzymatic assay was developed with fluorescence polarization (FP) and time-resolved Forster resonance energy transfer (TR-FRET) readouts, as described in International Patent Publication WO 2020/142729, incorporated by reference herein in its entirety. Plates are read on a PHERAstar FSX multimode reader (BMG). The compounds of the disclosure were tested for inhibition of cGAS ([…]) using this cGAS enzymatic assay under standard conditions (100 μM ATP and GTP, 62.5 nM bp ISD, 60 minute reactions), high ATP and GTP (1 mM) to mimic physiological conditions, in the presence of 200 μM MnCl2, and with mouse cGAS under standard conditions.
Potency with mcGAS is important for vivo efficacy studies and represents a challenge for lead development because mcGAS shares only 57% amino acid identity with human enzyme and there are significant functional differences.

TLR4 pathway = experiment: Reporter gene assay NFKB (TLR4); assay type: cell-based; conditions: at concentrations above 25 μM
Method: (§1) CETSA was also used to confirm that the compounds are binding to cGAS in cells; THP-1 cells are used for this analysis. Compounds were tested in dose response mode by incubating with cells for 1.5 hours at 37° C., followed by pelleting and re-suspending in PBS, heating to 51.5° C. for 3 min and cooling to room temp. Cells were then lysed, debris, including denatured cGAS, was pelleted and the supernatant was analyzed for soluble cGAS by Western Blot using anti-cGAS primary Ab (Cell Signaling). Band intensity was analyzed using Image J software. Stimulation with cGAMP directly activates STING, circumventing cGAS; this was used to determine if compounds had effects on downstream components of cGAS/STING signaling. The IFN-6 ELISA was used as the primary measure of cellular potency and selectivity (Table 3) and used the reporter gene assays for assessing off-target activity with other pattern recognition receptors.
(§2) The reporter gene assays were used to assess off-target activity with IRF30Luc (RIG-1) or NFKB (TLR4); CellTiter Glo (ATP levels) and Presto Blue (reducing equivalents) were used to assess cytotoxicity; all assays were performed in dose response mode. […] The inventors recently began using human PBMCs to assess cellular potency in a more physiologically relevant context.

[2] = system: IFNβ production in THP-1 cells; experiment: IFNβ ELISA in THP-1 cells; assay type: cell-based, human
Outline: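 THP-1 cells stimulated with dsDNA or cGAMP (STING activation bypassing cGAS) in the presence of compound; IFNβ secreted into medium quantified by ELISA. IC50 values reported in potency bins.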

cGAS = cGAS (Homo sapiens, UniProt Q8N884); experiment: Cellular thermal shift assay (CETSA) in THP-1 cells; assay type: cell-based; conditions: heat treatment 51.5 °C
Method: Panel A is an image of a western blot of the stabilization measure; panel B is a bar graph of the stabilization measure. Heat treatment was conducted at 51.5 ° C.
as §1

[3] = Cytotoxicity, CellTiter Glo (ATP levels) and Presto Blue (reducing equivalents); assay type: cell-based; conditions: CellTiter Glo, Presto Blue, dose response
Method: as §2

Sequence of cGAS (Q8N884 whole entry): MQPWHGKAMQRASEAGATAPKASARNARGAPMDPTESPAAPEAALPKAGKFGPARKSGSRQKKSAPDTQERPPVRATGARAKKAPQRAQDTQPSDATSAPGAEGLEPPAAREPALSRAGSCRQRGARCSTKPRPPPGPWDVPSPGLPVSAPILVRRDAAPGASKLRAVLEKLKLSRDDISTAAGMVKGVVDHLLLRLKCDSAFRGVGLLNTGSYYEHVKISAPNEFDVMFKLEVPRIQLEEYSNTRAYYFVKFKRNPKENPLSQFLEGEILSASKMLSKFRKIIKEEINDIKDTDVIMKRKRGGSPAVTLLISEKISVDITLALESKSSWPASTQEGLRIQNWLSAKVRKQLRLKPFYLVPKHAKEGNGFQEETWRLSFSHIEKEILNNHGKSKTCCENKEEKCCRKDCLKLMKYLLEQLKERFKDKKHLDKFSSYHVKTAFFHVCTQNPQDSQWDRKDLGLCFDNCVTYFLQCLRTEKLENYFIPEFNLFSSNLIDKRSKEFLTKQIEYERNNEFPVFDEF
Sequence of mouse cGAS (Q8C6L5 whole entry): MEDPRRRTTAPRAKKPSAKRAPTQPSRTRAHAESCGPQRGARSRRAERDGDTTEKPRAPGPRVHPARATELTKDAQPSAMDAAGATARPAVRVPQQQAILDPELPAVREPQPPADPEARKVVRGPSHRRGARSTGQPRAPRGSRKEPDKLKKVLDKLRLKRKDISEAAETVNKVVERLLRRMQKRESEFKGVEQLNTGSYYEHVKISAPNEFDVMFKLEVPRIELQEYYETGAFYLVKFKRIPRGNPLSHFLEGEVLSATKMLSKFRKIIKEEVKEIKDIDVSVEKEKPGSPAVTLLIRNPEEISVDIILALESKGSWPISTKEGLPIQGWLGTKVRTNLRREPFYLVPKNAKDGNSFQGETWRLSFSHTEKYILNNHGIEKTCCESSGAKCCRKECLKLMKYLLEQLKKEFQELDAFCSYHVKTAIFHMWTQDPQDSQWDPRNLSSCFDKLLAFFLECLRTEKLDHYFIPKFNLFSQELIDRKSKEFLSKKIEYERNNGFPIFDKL

half-life [1]: 1.67 to 3.33 h | IC50 (mouse cGAS): 4.23 µM | IC50 ([2]; Homo sapiens, THP-1 cells): < 1 µM | Cellular IC50 relative to biochemical IC50 ([2]; cellular assays vs cGAS enzymatic assay at 1 mM ATP/GTP): essentially identical
SMILES: Cc1nc(N2C[C@@H](CC(=O)Nc3ccc(-c4ccccc4)cc3)C[C@H]2C(=O)O)c2oc3ccccc3c2n1 [Compound 5, (2S,4R)-4-(2-([1,1′-biphenyl]-4-ylamino)-2-oxoethyl)-1-(2-methylbenzofuro[3,2-d]pyrimidin-4-yl)pyrrolidine-2-carboxylic acid]
Off-target activity with the TLR4 pathway (TLR4 pathway): some off-target activity | Stabilization of cGAS in cells (CETSA) (cGAS): dose dependent stabilization; also recorded: intracellular target engagement | Concentration showing cytotoxicity [3]: above 25 μM
